Data taken from patent publication US10023552B2, “Method of preparing a liquiritigenin precursor” (priority 2014, dated 2018).
Like-named read-outs stand apart in the source and are kept apart here.

Experiments:
[1] = Acute toxicity test (Japan Food Analysis Center); type: in vivo; details: tested in Japan Food Analysis Center
Protocol: The desired product iso-liquiritigenin were tested for acute toxicity in Japan Food Analysis Center and it was confirmed that there is no toxicity.

[2] = system: human leukemia cells HL-60; details: cited from earlier work
[3] = system: human liver cancer cells SMMC7721; details: cited from earlier work
[4] = system: human lung cancer cells A549; details: cited from earlier work
[5] = system: human poorly differentiated gastric cancer line BGC-823; details: cited from earlier work

SMILES: O=C(/C=C/c1ccc(O)cc1)c1ccc(O)cc1O [iso-liquiritigenin]
- acute toxicity [1]: no toxicity

SMILES: O=C1C[C@@H](c2ccc(O)cc2)Oc2cc(O)ccc21 [Liquiritigenin, liquiritigenin]
- HL-60 Inhibition % ([2]; Conc. 1 μg/ml): 50.95%
- HL-60 Inhibition % ([2]; Conc. 10 μg/ml): 64.40%
- HL-60 Inhibition % ([2]; Conc. 100 μg/ml): 99.30%
- SMMC7721 Inhibition % ([3]; Conc. 1 μg/ml): 23.17%
- SMMC7721 Inhibition % ([3]; Conc. 10 μg/ml): 96.08%
- SMMC7721 Inhibition % ([3]; Conc. 100 μg/ml): 98.00%
- A549 Inhibition % ([4]; Conc. 1 μg/ml): 7.76%
- A549 Inhibition % ([4]; Conc. 10 μg/ml): 35.66%
- A549 Inhibition % ([4]; Conc. 10 μg/ml, listed as Liquiritigenin (−)): 35.06%
- A549 Inhibition % ([4]; Conc. 100 μg/ml): 93.03%
- BGC-823 Inhibition % ([5]; Conc. 1 μg/ml): 24.41%
- BGC-823 Inhibition % ([5]; Conc. 10 μg/ml): 73.76%
- BGC-823 Inhibition % ([5]; Conc. 100 μg/ml): 97.52%

SMILES: COc1cccc2c1C(=O)c1c(O)c3c(c(O)c1C2=O)C[C@@](O)(C(=O)CO)C[C@@H]3O[C@H]1C[C@H](N)[C@H](O)[C@H](C)O1 [adriamycin, reference compound]
- HL-60 Inhibition % ([2]; Conc. 1 × 10^−5 Mol/l): 99.09%
- SMMC7721 Inhibition % ([3]; Conc. 1 × 10^−5 Mol/l): 97.47%
- SMMC7721 Inhibition % ([3]; Conc. 1 × 10^−6 Mol/l): 58.40%
- SMMC7721 Inhibition % ([3]; Conc. 1 × 10^−7 Mol/l): 10.28%
- A549 Inhibition % ([4]; Conc. 1 × 10^−5 Mol/l): 90.44%
- A549 Inhibition % ([4]; Conc. 1 × 10^−6 Mol/l): 16.42%
- A549 Inhibition % ([4]; Conc. 1 × 10^−7 Mol/l): 16.42%
- BGC-823 Inhibition % ([5]; Conc. 1 × 10^−5 Mol/l): 97.67%
- BGC-823 Inhibition % ([5]; Conc. 1 × 10^−6 Mol/l): 45.80%
- BGC-823 Inhibition % ([5]; Conc. 1 × 10^−7 Mol/l): 17.86%
